Assays:
[1] = Toxicity by counting live cells (trypan blue exclusion); assay type: cell-based; conditions: live cell count, read-out: Cytotoxicity TC50
Description: (§1) Several additional compounds were also tested for HIV virus inhibition, and the results are show in Table 5. P24 concentration in the supernatant was measured using a commercial ELISA assay. Toxicity was assessed by counting live cells (trypan blue exclusion)

[2] = system: HIV-1; assay: HIV virus inhibition, p24 in supernatant by ELISA; assay type: cell-based; conditions: for EC50: Human immunodeficiency virus 1, HIV-1, p24 ELISA of supernatant
Description: as §1

[3] = system: integration; conditions: Vozzolo et al., J. Biol. Chem. 2010; cited from earlier work
[4] = Cell viability (CellTiter 96 AQueous One) in HepG2 2.2.15; assay type: cell-based; conditions: human, HepG2-2.2.15 cells, read-out: Cytotoxicity TC50
Description: The anti-HBV assay employed real-time qPCR (TaqMan) to directly measure extracellular HBV DNA copy number. HepG2-2.2.15 cells were plated in 96-well microtiter plates. Only the interior wells were utilized to reduce “edge effects” observed during cell culture; the exterior wells were filled with complete medium to help minimize sample evaporation. After 16-24 hours the confluent monolayer of HepG2-2.2.15 cells was washed and the medium replaced with complete medium containing various concentrations of a test compound in triplicate. 3TC was used as positive control, while media alone was added to cells as negative control (virus control, VC). Three days later the culture medium was replaced with fresh medium containing the appropriately diluted drug. Six days following the initial administration of the test compound, the cell culture supernatant collected, treated with pronase and then used in a real-time quantitative TaqMan qPCR assay. The PCR-amplified HBV DNA was detected in real-time by monitoring increases in fluorescence signals that result from the exonucleolytic degradation of a quenched fluorescent probe molecule that hybridizes to the amplified HBV DNA. […] Antiviral activity was calculated from the reduction in HBV DNA levels (IC50). […] The therapeutic index (TI) was calculated as TC50/IC50.

[5] = system: Hepatitis B Virus (HBV); assay: Anti-HBV assay, real-time qPCR of extracellular HBV DNA in HepG2 2.2.15; assay type: cell-based
Description: The anti-HBV assay employed real-time qPCR (TaqMan) to directly measure extracellular HBV DNA copy number. HepG2-2.2.15 cells were plated in 96-well microtiter plates. Only the interior wells were utilized to reduce “edge effects” observed during cell culture; the exterior wells were filled with complete medium to help minimize sample evaporation. After 16-24 hours the confluent monolayer of HepG2-2.2.15 cells was washed and the medium replaced with complete medium containing various concentrations of a test compound in triplicate. 3TC was used as positive control, while media alone was added to cells as negative control (virus control, VC). Three days later the culture medium was replaced with fresh medium containing the appropriately diluted drug. Six days following the initial administration of the test compound, the cell culture supernatant collected, treated with pronase and then used in a real-time quantitative TaqMan qPCR assay. The PCR-amplified HBV DNA was detected in real-time by monitoring increases in fluorescence signals that result from the exonucleolytic degradation of a quenched fluorescent probe molecule that hybridizes to the amplified HBV DNA. For each PCR amplification, a standard curve was simultaneously generated using dilutions of purified HBV DNA. Antiviral activity was calculated from the reduction in HBV DNA levels (IC50). CellTiter 96® AQueous One Solution Cell Proliferation Assay kit (Promega) was employed to measure cell viability which was used to calculate cytotoxicity (TC50). The therapeutic index (TI) was calculated as TC50/IC50.

[6] = system: HIV reactivation; conditions: Anderson et al., PNAS 2014; cited from earlier work

Compound | CC50 [1] [nM] | Selectivity Index TI (TC50/EC50) [2] | EC50 [2] [nM] | also measured
COCCNc1cc(-n2nc(C)c3c2CC(C)(C)CC3=O)ccc1C(N)=O [Compound 3, 2-((2-methoxyethyl)amino)-4-(3,6,6-trimethyl-4-oxo-4,5,6,7-tetrahydro-1H-indazol-1-yl)benzamide] | 1160 | 901 | 1.3 | 
Cc1nn(-c2ccc(C(N)=O)c(NCCCO)c2)c2c1C(=O)CC(C)(C)C2 [Compound 6, 2-((3-hydroxypropyl)amino)-4-(3,6,6-trimethyl-4-oxo-4,5,6,7-tetrahydro-1H-indazol-1-yl)benzamide] |  |  | 32 | 
C=CCNC1=C2C[C@@H](C)C[C@H](OC)[C@H](O)[C@@H](C)/C=C(\C)[C@H](OC(N)=O)[C@@H](OC)/C=C\C=C(/C)C(=O)NC(=CC1=O)C2=O [17-allylamino-17-demethoxy-geldanamycin] |  |  |  | Effect on integration [3]: no effect
Nc1ccn([C@@H]2CS[C@H](CO)O2)c(=O)n1 [Compound 3TC, 2′,3′-dideoxy-3′-thiacytidine, reference compound] |  |  |  | CC50 at 6 days [4]: > 500 nM; Selectivity Index TI (TC50/IC50) ([5]; HBV in HepG2 2.2.15): >14.0; IC50 ([5]; Hepatitis B virus, 144 h, HBV in HepG2 2.2.15, six days, read-out: Antiviral Activity IC50 (reduction in HBV DNA levels)): 35.6 nM
Cc1nn(-c2ccc(C(N)=O)c(NCCO)c2)c2c1C(=O)CC(C)(C)C2 [Compound 2, 2-((2-hydroxyethyl)amino)-4-(3,6,6-trimethyl-4-oxo-4,5,6,7-tetrahydro-1H-indazol-1-yl)benzamide] | 617 | 12 | 52 | 
Cc1nn(-c2ccc(C(N)=O)c(NCCOCCOCCN)c2)c2c1C(=O)CC(C)(C)C2 [Compound 5, 2-((2-(2-(2-aminoethoxy)ethoxy)ethyl)amino)-4-(3,6,6-trimethyl-4-oxo-4,5,6,7-tetrahydro-1H-indazol-1-yl)benzamide] |  |  | 2160 | 
CCOCCCNc1cc(-n2nc(C)c3c2CC(C)(C)CC3=O)ccc1C(N)=O [Compound 8, 2-((3-ethoxypropyl)amino)-4-(3,6,6-trimethyl-4-oxo-4,5,6,7-tetrahydro-1H-indazol-1-yl)benzamide] |  |  | 42 | 
COCCCNc1cc(-n2nc(C)c3c2CC(C)(C)CC3=O)ccc1C(N)=O [Compound 7, 2-((3-methoxypropyl)amino)-4-(3,6,6-trimethyl-4-oxo-4,5,6,7-tetrahydro-1H-indazol-1-yl)benzamide] |  |  | 81 | 
CCOCCNc1cc(-n2nc(C)c3c2CC(C)(C)CC3=O)ccc1C(N)=O [Compound 4, 2-((2-ethoxyethyl)amino)-4-(3,6,6-trimethyl-4-oxo-4,5,6,7-tetrahydro-1H-indazol-1-yl)benzamide] | 2170 | 24 | 89 | 
CCNC(=O)c1noc(-c2cc(C(C)C)c(O)cc2O)c1-c1ccc(CN2CCOCC2)cc1 [AUY922] |  |  |  | Suppression of HIV reactivation [6]: almost completely suppressed
Cc1nn(-c2ccc(C(N)=O)c(NC3CCC(O)CC3)c2)c2c1C(=O)CC(C)(C)C2 (stereo not drawn) [Compound 1, 2-((4-hydroxycyclohexyl)amino)-4-(3,6,6-trimethyl-4-oxo-4,5,6,7-tetrahydro-1H-indazol-1-yl)benzamide] | 436 | 54 | 8.1 | 
